The values that follow come from publication PMC6270026, “Antibacterial and Herbicidal Activity of Ring-Substituted 2-Hydroxynaphthalene-1-carboxanilides” (Molecules, 2013).

Values after ≈ are worked out from the molar mass of the structure shown. Where two headings read alike, the source gives them in different places.

Common to all, as to experiment: In vitro antibacterial susceptibility testing (broth dilution MIC)
Assay type in all cases: cell-based
(Broth dilution looks for growth in wells or tubes with falling amounts of substance.)

Test [1] deals with methicillin-resistant Staphylococcus aureus SA 630. Conditions: MRSA, clinical isolate SA 630, 24 h, 37 °C.
Test [2] has as its system Staphylococcus aureus ATCC 29213. Conditions: ATCC29213; Staphylococcus aureus ATCC 29213, 24 h, 37 °C.
In test [3] the test system is methicillin-resistant Staphylococcus aureus (MRSA) 63718. Conditions: clinical isolate MRSA 63718, 24 h, 37 °C.
Test [4] concerns methicillin-resistant Staphylococcus aureus SA 3202. The following applies: MRSA, read-out: MIC MRSA 3202.
Where [5] appears, read: clinical isolate SA 3202, 24 h, 37 °C.

Take `O=C(Nc1ccccc1Cl)c1c(O)ccc2ccccc12` [Compound 5a, N-(2-chlorophenyl)-2-hydroxynaphthalene-1-carboxamide]: the minimal inhibitory concentration (MIC) is over 860 µM in test [1], 215 µM (≈ 64 µg/mL) in test [2], 860 µM (≈ 256 µg/mL) in test [3] and over 860 µM in test [4] (24 h).

Regarding `O=C(Nc1ccccc1C(F)(F)F)c1c(O)ccc2ccccc12` [Compound 7a, 2-Hydroxy-N-(2-trifluoromethylphenyl)naphthalene-1-carboxamide], the MIC in test [1] came to 97.1 µM (≈ 32.2 µg/mL); in test [2] it was 97.1 µM (≈ 32.2 µg/mL); in test [3], 193 µM (≈ 63.9 µg/mL); in test [4] (setting [5]), 193 µM (≈ 63.9 µg/mL).

As to `O=C(Nc1cccc(C(F)(F)F)c1)c1c(O)ccc2ccccc12` [Compound 7b, 2-Hydroxy-N-(3-trifluoromethylphenyl)naphthalene-1-carboxamide], the MIC was 374 µM (≈ 124 µg/mL) in test [1], over 748 µM in test [2], 187 µM (≈ 62 µg/mL) in test [3] and 94 µM (≈ 31.1 µg/mL) in test [4] (setting [5]).

In general, MIC refers to the least concentration at which growth counts as inhibited.
